Test results reported in patent US9040529B2 (Vichem Chemie Kutató Kft., priority 2009, dated 2015).

Molecular target: T1, human CDK9/CyclinT kinase complex (Homo sapiens, UniProt P50750)
T1 construct: purchased Proqinase 0371-0345-1
Assay: In vitro CDK9/CyclinT assay (IMAP fluorescence polarization kinase assay)
Type: biochemical
Details: for IC50: 5 nM CDK9/CyclinT, 400 nM TAMRA-Rbtide, 12 μM ATP, 1 hour at room temperature, read-out: CDK9 inhibitory range
Protocol: In Vitro CDK9/CyclinT Assay
The activity of the compounds described in the present invention can be determined by the following kinase assay, which measures the phosphorylation of a fluorescently-labeled peptide by human CDK9/CyclinT kinase complex by fluorescent polarization using a commercially available IMAP Screening Express Assay Kit (Molecular devices).
CDK9 kinase assays were performed in low protein binding 384-well plates (Corning 3676). Test compounds were diluted in 100% DMSO to 5 mM stock concentration, then further dilutions were made in H2O or 100% DMSO to desirable concentrations.
Each reaction consisted of 5 nM enzyme: CDK9/CyclinT (Proqinase cat#0371-0345-1), 400 nM TAMRA-Rbtide (synthetic 15-mer peptide derived from human retinoblastoma tumor suppressor protein labelled with TAMRA dye, Genecust Europe), 12 μM ATP (=Kmapp, Sigma-Aldrich) and kinase buffer: 20 mM MOPS pH 7 (Sigma-Aldrich), 1 mM DTT (Sigma-Aldrich), 10 mM MgCl2 (Sigma-Aldrich), 0.01% Tween 20 (Sigma-Aldrich).
For each reaction, 4 or 6 μl containing TAMRA-Rbtide, ATP and kianse buffer were combined with 2 μl diluted compound in H2O or 0.028 μl compound in 100% DMSO. The kinase reaction was started by the addition of 2 μl diluted enzyme. The reaction was allowed to run for 1 hours at room temperature. The reaction was stopped by adding 15 μl IMAP beads (1:400 beads in progressive (100% buffer A) 1× buffer). After an additional 1 hours, fluorescent polarization (Ex: 550-10 nm, Em: 590-10 nm, Dich: 561 nm) was measured using an Analyst GT (Molecular devices).

T1 sequence (P50750 whole entry): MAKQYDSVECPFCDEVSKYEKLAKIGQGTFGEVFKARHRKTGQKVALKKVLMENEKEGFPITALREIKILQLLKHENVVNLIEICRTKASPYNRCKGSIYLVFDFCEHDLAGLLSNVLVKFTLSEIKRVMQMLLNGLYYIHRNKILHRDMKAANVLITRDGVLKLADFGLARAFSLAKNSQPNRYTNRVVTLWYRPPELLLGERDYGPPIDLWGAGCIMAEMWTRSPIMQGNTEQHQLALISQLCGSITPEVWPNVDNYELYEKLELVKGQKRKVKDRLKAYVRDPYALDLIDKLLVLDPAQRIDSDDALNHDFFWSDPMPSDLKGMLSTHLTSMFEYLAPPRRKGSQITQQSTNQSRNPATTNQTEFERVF
T1 sequence (O60563 whole entry partner): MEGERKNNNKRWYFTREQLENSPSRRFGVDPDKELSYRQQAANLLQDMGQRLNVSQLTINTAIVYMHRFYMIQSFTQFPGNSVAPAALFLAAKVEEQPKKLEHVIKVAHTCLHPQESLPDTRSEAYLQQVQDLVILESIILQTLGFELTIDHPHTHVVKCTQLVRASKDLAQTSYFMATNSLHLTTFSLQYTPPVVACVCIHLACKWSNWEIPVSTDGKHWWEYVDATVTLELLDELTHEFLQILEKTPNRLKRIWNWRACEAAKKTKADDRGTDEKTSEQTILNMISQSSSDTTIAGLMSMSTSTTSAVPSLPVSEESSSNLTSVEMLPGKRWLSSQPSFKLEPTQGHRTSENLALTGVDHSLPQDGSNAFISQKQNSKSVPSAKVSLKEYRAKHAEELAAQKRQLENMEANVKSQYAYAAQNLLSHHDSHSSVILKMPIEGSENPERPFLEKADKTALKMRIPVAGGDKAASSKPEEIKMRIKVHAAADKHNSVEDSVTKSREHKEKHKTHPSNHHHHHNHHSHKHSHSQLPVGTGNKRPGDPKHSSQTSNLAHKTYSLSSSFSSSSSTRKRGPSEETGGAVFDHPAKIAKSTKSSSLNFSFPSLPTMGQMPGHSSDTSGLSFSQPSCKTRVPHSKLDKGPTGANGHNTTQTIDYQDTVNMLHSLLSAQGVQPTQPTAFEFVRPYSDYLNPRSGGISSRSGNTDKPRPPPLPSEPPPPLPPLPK

IC50 [µM]	CDK9 inhibitory effect	Compound
< 10	–	COc1ccccc1-c1cc(Nc2cccc(Cn3c(CN4CCOCC4)nc4ccccc43)c2)ncn1 [Example 93, [6-(2-Methoxy-phenyl)-pyrimidin-4-yl]-[3-(2-morpholin-4-ylmethyl-benzoimidazol-1-ylmethyl)-phenyl]-amine]
< 10	–	CS(=O)(=O)NCc1cccc(Nc2cc(-c3ccccc3OC(F)(F)F)ncn2)c1 [Example 15, N-{3-[6-(2-Trifluoromethoxy-phenyl)-pyrimidin-4-ylamino]-benzyl}-methanesulfonamide]
< 10	–	CS(=O)(=O)NCc1cccc(Nc2cc(-c3ccccc3F)ncn2)c1 [Example 16, N-{3-[6-(2-Fluoro-phenyl)-pyrimidin-4-ylamino]-benzyl}-methanesulfonamide]
< 10	–	C[S+]([O-])c1ccccc1-c1cc(Nc2cccc(CNS(C)(=O)=O)c2)ncn1 (centres unmarked) [Example 29, N-{3-[6-(2-Methanesulfinyl-phenyl)-pyrimidin-4-ylamino]-benzyl}-methanesulfonamide]
> 10	–	Clc1cc(Nc2cccc(CNc3nc4ccccc4[nH]3)c2)ncn1 [Example 59, (1H-Benzoimidazol-2-yl)-[3-(6-chloro-pyrimidin-4-ylamino)-benzyl]-amine]
< 1	–	COc1cc(F)ccc1-c1cc(Nc2cccc(CNc3nc4ccccc4[nH]3)c2)ncn1 [Example 61, (1H-Benzoimidazol-2-yl)-{3-[6-(4-fluoro-2-methoxy-phenyl)-pyrimidin-4-ylamino]-benzyl}-amine]
> 10	–	CS(=O)(=O)NCc1ccc(Nc2cc(-c3ccc(F)cc3F)ncn2)cc1 [Example 42, N-{4-[6-(2,4-Difluoro-phenyl)-pyrimidin-4-ylamino]-benzyl}-methanesulfonamide]
< 1	–	COc1ccccc1-c1cc(Nc2ccc(Cn3cnc4ccccc43)cc2)ncn1 [Example 87, (4-Benzoimidazol-1-ylmethyl-phenyl)-[6-(2-methoxy-phenyl)-pyrimidin-4-yl]-amine]
< 0.1	nanomolar or low nanomolar range	COc1ccccc1-c1cc(Nc2cccc(CN3C(=O)c4ccccc4C3=O)c2)ncn1 [Example 68, 2-{3-[6-(2-Methoxy-phenyl)-pyrimidin-4-ylamino]-benzyl}-isoindole-1,3-dione]
< 0.1	nanomolar or low nanomolar range	COc1ccc(F)cc1-c1cc(Nc2cccc(Cn3cnc4ccccc43)c2)ncn1 [Example 66, (3-Benzoimidazol-1-ylmethyl-phenyl)-[6-(5-fluoro-2-methoxy-phenyl)-pyrimidin-4-yl]-amine]
< 0.1	nanomolar or low nanomolar range	COc1cc(F)ccc1-c1cc(Nc2ccc(CNS(C)(=O)=O)cc2)ncn1 [Example 39, N-{4-[6-(4-Fluoro-2-methoxy-phenyl)-pyrimidin-4-ylamino]-benzyl}-methanesulfonamide]
< 10	–	COc1cc(F)ccc1-c1cc(Nc2cccc(Cn3c(CN4CCOCC4)nc4ccccc43)c2)ncn1 [Example 94, [6-(4-Fluoro-2-methoxy-phenyl)-pyrimidin-4-yl]-[3-(2-morpholin-4-ylmethyl-benzoimidazol-1-ylmethyl)-phenyl]-amine]
< 10	–	CS(=O)(=O)NCc1ccc(Nc2cc(-c3ccccc3)ncn2)cc1 [Example 45, N-[4-(6-Phenyl-pyrimidin-4-ylamino)-benzyl]-methanesulfonamide]
< 1	–	CCc1ccccc1-c1cc(Nc2cccc(CNS(C)(=O)=O)c2)ncn1 [Example 12, N-{3-[6-(2-Ethyl-phenyl)-pyrimidin-4-ylamino]-benzyl}-methanesulfonamide]
< 1	–	COc1ccc(-c2cc(Nc3ccc(CNS(C)(=O)=O)cc3)ncn2)cc1 [Example 57, N-{4-[6-(4-Methoxy-phenyl)-pyrimidin-4-ylamino]-benzyl}-methanesulfonamide]
< 10	–	Cc1ccccc1-c1cc(Nc2cccc(CNS(C)(=O)=O)c2)ncn1 [Example 11, N-[3-(6-o-Tolyl-pyrimidin-4-ylamino)-benzyl]-methanesulfonamide]
< 0.1	nanomolar or low nanomolar range	CC(C)Oc1cc(F)ccc1-c1cc(Nc2ccc(CNS(C)(=O)=O)cc2)ncn1 [Example 48, N-{4-[6-(4-Fluoro-2-isopropoxy-phenyl)-pyrimidin-4-ylamino]-benzyl}-methanesulfonamide]
< 10	–	CS(=O)(=O)NCc1ccc(Nc2cc(-c3ccccc3F)ncn2)cc1 [Example 44, N-{4-[6-(2-Fluoro-phenyl)-pyrimidin-4-ylamino]-benzyl}-methanesulfonamide]

IC50 [µM]	CDK9 inhibitory effect	Compound
< 0.1	nanomolar or low nanomolar range	COc1cc(Cl)ccc1-c1cc(Nc2ccc(CNS(C)(=O)=O)cc2)ncn1 [Example 54, N-{4-[6-(4-Chloro-2-methoxy-phenyl)-pyrimidin-4-ylamino]-benzyl}-methanesulfonamide]
> 10	–	O=C1c2ccccc2C(=O)N1Cc1cccc(Nc2cc(Cl)ncn2)c1 [Example 67, 2-[3-(6-Chloro-pyrimidin-4-ylamino)-benzyl]-isoindole-1,3-dione]
< 1	–	CCCOc1ccccc1-c1cc(Nc2cccc(CNS(C)(=O)=O)c2)ncn1 [Example 31, N-{3-[6-(2-Propoxy-phenyl)-pyrimidin-4-ylamino]-benzyl}-methanesulfonamide]
< 0.1	nanomolar or low nanomolar range	CCCOc1ccccc1-c1cc(Nc2ccc(CNS(C)(=O)=O)cc2)ncn1 [Example 53, N-{4-[6-(2-Propoxy-phenyl)-pyrimidin-4-ylamino]-benzyl}-methanesulfonamide]
< 10	–	COc1ccc(-c2cc(Nc3cccc(CNS(C)(=O)=O)c3)ncn2)cc1 [Example 19, N-{3-[6-(4-Methoxy-phenyl)-pyrimidin-4-ylamino]-benzyl}-methanesulfonamide]
< 10	–	Oc1cccc(-c2cc(Nc3cccc(Cn4cnc5ccccc54)c3)ncn2)c1 [Example 83, 3-[6-(3-Benzoimidazol-1-ylmethyl-phenylamino)-pyrimidin-4-yl]-phenol]
< 1	–	COc1ccccc1-c1cc(Nc2cccc(CNC(=O)c3ccc(F)cc3)c2)ncn1 [Example 84, 4-Fluoro-N-{3-[6-(2-methoxy-phenyl)-pyrimidin-4-ylamino]-benzyl}-benzamide]
< 10	–	CS(=O)(=O)NCc1cccc(Nc2cc(-c3cccc(C(N)=O)c3)ncn2)c1 [Example 20, 3-{6-[3-(Methanesulfonylamino-methyl)-phenylamino]-pyrimidin-4-yl}-benzamide]
< 0.1	–	CC(C)Oc1cc(F)ccc1-c1cc(Nc2cccc(Cn3cnc4ccccc43)c2)ncn1 [Example 81, (3-Benzoimidazol-1-ylmethyl-phenyl)-[6-(4-fluoro-2-isopropoxy-phenyl)-pyrimidin-4-yl]-amine]
< 1	–	CC(C)Oc1ccccc1-c1cc(Nc2cccc(CNS(C)(=O)=O)c2)ncn1 [Example 8, N-{3-[6-(2-Isopropoxy-phenyl)-pyrimidin-4-ylamino]-benzyl}-methanesulfonamide]
< 0.1	nanomolar or low nanomolar range	CC(C)Oc1ccccc1-c1cc(Nc2ccc(CNS(C)(=O)=O)cc2)ncn1 [Example 56, N-{4-[6-(2-Isopropoxy-phenyl)-pyrimidin-4-ylamino]-benzyl}-methanesulfonamide]
< 0.1	nanomolar or low nanomolar range	COc1cccc(F)c1-c1cc(Nc2cccc(CNS(C)(=O)=O)c2)ncn1 [Example 13, N-{3-[6-(2-Fluoro-6-methoxy-phenyl)-pyrimidin-4-ylamino]-benzyl}-methanesulfonamide]
< 1	–	CS(=O)(=O)NCc1cccc(Nc2cc(-c3cccc4c3OCO4)ncn2)c1 [Example 27, N-[3-(6-Benzo[1,3]dioxol-4-yl-pyrimidin-4-ylamino)-benzyl]-methanesulfonamide]
< 1	–	COc1ccc(-c2cc(Nc3cccc(CNS(C)(=O)=O)c3)ncn2)c(OC)c1 [Example 24, N-{3-[6-(2,4-Dimethoxy-phenyl)-pyrimidin-4-ylamino]-benzyl}-methanesulfonamide]
> 10	–	Clc1cc(Nc2ccc(Cn3cnc4ccccc43)cc2)ncn1 [Example 86, (4-Benzoimidazol-1-ylmethyl-phenyl)-(6-chloro-pyrimidin-4-yl)-amine]
< 1	–	CS(=O)(=O)NCc1cccc(Nc2cc(-c3ccccc3OCc3ccc(F)cc3)ncn2)c1 [Example 10, N-(3-{6-[2-(4-Fluoro-benzyloxy)-phenyl]-pyrimidin-4-ylamino}-benzyl)-methanesulfonamide]
< 10	–	COc1ccccc1-c1cc(Nc2cccc(Cn3ccc4ccccc43)c2)ncn1 [Example 91, (3-Indol-1-ylmethyl-phenyl)-[6-(2-methoxy-phenyl)-pyrimidin-4-yl]-amine]
> 10	–	CS(=O)(=O)NCc1ccc(Nc2cc(-c3ccccc3C(F)(F)F)ncn2)cc1 [Example 43, N-{4-[6-(2-Trifluoromethyl-phenyl)-pyrimidin-4-ylamino]-benzyl}-methanesulfonamide]
